# Patent US10214519B2, “Phosphatidylinositol 3-kinase inhibitors” (Gilead Sciences, Inc., priority 2016, dated 2019)
# Biological target: PI3Kβ (Homo sapiens (Human), UniProt P42338)
# Assay: PI3K isoform TR-FRET enzymatic assay (PI3Kβ)
# Format: biochemical
# Conditions: 2× Km ATP, 30 minutes at 25° C.
# Summary of the method: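 IC50 came from four-parameter dose-response fits, normalized between DMSO and 1 μM wortmannin controls. The read-out was TR-FRET (615/665 nm) of PIP3 displacing fluorescent PIP3 from Europium GRP-1 after 10 mM EDTA termination. Compounds were incubated with purified heterodimeric PI3Kβ for 30 min at 25° C.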
# PI3Kβ, sequence (P42338 whole entry, canonical isoform): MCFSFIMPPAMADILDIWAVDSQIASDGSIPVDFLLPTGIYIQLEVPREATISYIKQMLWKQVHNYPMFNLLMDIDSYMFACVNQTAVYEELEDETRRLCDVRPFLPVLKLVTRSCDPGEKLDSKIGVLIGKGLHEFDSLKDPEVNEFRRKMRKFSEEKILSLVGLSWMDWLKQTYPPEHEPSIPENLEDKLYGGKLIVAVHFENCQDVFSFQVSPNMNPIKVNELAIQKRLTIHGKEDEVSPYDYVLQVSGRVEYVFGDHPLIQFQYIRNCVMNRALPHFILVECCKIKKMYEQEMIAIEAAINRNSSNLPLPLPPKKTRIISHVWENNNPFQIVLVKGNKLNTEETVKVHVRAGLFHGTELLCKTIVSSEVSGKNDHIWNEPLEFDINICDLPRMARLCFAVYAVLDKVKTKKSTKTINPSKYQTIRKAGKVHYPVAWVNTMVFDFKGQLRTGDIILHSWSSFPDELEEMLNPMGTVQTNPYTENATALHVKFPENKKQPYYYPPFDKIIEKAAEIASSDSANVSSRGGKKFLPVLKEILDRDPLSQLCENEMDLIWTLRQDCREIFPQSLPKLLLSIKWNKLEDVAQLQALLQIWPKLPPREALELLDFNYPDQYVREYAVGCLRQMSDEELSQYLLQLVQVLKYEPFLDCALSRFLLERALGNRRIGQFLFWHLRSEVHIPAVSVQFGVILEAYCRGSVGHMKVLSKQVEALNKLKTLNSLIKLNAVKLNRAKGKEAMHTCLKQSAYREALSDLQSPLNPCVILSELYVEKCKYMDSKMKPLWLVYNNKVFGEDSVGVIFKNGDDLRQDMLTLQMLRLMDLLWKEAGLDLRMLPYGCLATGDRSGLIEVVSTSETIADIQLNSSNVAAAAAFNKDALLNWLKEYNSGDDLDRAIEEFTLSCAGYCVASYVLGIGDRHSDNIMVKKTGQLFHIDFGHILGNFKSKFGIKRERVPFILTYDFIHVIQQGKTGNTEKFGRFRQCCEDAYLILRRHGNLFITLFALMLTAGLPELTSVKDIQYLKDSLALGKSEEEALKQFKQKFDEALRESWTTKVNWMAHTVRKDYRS
# PI3Kβ, sequence (P27986 whole entry partner, canonical isoform): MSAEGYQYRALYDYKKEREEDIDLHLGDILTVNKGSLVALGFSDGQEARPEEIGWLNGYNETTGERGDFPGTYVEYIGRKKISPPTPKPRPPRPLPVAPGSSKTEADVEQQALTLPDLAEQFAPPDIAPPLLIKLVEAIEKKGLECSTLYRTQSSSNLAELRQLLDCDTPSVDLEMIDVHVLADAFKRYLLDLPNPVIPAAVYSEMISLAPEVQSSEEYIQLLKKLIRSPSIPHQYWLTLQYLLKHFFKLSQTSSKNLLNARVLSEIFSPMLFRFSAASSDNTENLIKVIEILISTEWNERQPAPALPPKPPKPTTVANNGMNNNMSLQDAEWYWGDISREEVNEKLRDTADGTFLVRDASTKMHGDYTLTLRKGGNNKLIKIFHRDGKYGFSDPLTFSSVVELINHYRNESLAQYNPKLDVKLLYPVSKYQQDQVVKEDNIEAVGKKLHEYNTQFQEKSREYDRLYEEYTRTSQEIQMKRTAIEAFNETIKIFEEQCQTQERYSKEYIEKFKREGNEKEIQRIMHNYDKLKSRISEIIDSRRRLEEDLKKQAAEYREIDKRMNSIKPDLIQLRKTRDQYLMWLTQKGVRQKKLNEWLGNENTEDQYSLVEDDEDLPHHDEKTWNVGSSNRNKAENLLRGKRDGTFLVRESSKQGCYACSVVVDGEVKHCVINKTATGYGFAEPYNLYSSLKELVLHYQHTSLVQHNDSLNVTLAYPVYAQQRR
row,IC50 [nM],Compound
1,41,"Clc1cccc2c(-n3c(-c4cccnc4)nc4c(-c5nnc[nH]5)cc(N5CCOCC5)cc43)ccnc12 [Example 10, 4-(1-(8-chloroquinolin-4-yl)-2-(pyridin-3-yl)-4-(4H-1,2,4-triazol-3-yl)-1H-benzo[d]imidazol-6-yl)morpholine]"
2,40,"CCc1nc2c(-c3cnc(C)[nH]3)cc(N3CCOCC3)cc2n1-c1ccnc2c(F)ccc(F)c12 [Example 206, 4-[3-(5,8-difluoroquinolin-4-yl)-2-ethyl-7-(2-methyl-1H-imidazol-5-yl)benzimidazol-5-yl]morpholine]"
3,11,"CC(C)c1nc2c(-c3nnc[nH]3)cc(N3CCOCC3)cc2n1-c1ccnc2c(Cl)cccc12 [Example 36, 4-(1-(8-chloroquinolin-4-yl)-2-isopropyl-4-(4H-1,2,4-triazol-3-yl)-1H-benzo[d]imidazol-6-yl)morpholine]"
4,290,"Cc1nnc(-c2cc(N3CCOCC3)cc3c2nc(C)n3-c2ccnc3cccc(C)c23)[nH]1 [Example 93, 4-[2-methyl-3-(5-methylquinolin-4-yl)-7-(5-methyl-4H-1,2,4-triazol-3-yl)benzimidazol-5-yl]morpholine]"
5,25,"Cc1cc(-n2c(C)nc3c(-c4cnc(Cl)[nH]4)cc(N4CCOCC4)cc32)c2cccc(F)c2n1 [Example 282, 4-[7-(2-chloro-1H-imidazol-5-yl)-3-(8-fluoro-2-methylquinolin-4-yl)-2-methylbenzimidazol-5-yl]morpholine]"
6,3,"Clc1cccc2c(-n3cnc4c(-c5ncco5)cc(N5CCOCC5)cc43)ccnc12 [Example 224, 4-[3-(8-chloroquinolin-4-yl)-7-(1,3-oxazol-2-yl)benzimidazol-5-yl]morpholine]"
7,100,"Cc1nc2c(-c3nnc(Cl)[nH]3)cc(N3CCOCC3)cc2n1-c1ccnc2c(Cl)c(F)ccc12 [Example 171, 4-(4-(5-chloro-4H-1,2,4-triazol-3-yl)-1-(8-chloro-7-fluoroquinolin-4-yl)-2-methyl-1H-benzo[d]imidazol-6-yl)morpholine]"
8,10,"Clc1cccc2c(-n3c(C4CC4)nc4c(-c5ncco5)cc(N5CCOCC5)cc43)ccnc12 [Example 228, 4-[3-(8-chloroquinolin-4-yl)-2-cyclopropyl-7-(1,3-oxazol-2-yl)benzimidazol-5-yl]morpholine]"
9,19,"Cc1nc2c(-c3nnc[nH]3)cc(N3CCOCC3)c(F)c2n1-c1ccnc2c(Cl)cccc12 [Example 91, 4-[3-(8-chloroquinolin-4-yl)-4-fluoro-2-methyl-7-(4H-1,2,4-triazol-3-yl)benzimidazol-5-yl]morpholine]"
10,4,"CCCc1nc2c(-c3nnc[nH]3)cc(N3CCOCC3)cc2n1-c1ccnc2c(Cl)cccc12 [Compound 1, 4-(1-(8-chloroquinolin-4-yl)-2-propyl-4-(4H-1,2,4-triazol-3-yl)-1H-benzo[d]imidazol-6-yl)morpholine 2,2,2-trifluoroacetate]"
11,56,"CCc1nc2c(-c3nc(C)cs3)cc(N3CCOCC3)cc2n1-c1ccnc2c(F)cccc12 [Example 232, 4-[2-ethyl-3-(8-fluoroquinolin-4-yl)-7-(4-methyl-1,3-thiazol-2-yl)benzimidazol-5-yl]morpholine]"
12,380,"Clc1cccc2c(-n3c(C4CNC4)nc4c(-c5nnc[nH]5)cc(N5CCOCC5)cc43)ccnc12 [Example 132, 4-[2-(azetidin-3-yl)-3-(8-chloroquinolin-4-yl)-7-(4H-1,2,4-triazol-3-yl)benzimidazol-5-yl]morpholine]"
13,56,"Fc1cccc2c(-n3c(C4CC4)nc4c(-c5cnc(Cl)[nH]5)cc(N5CCOCC5)cc43)ccnc12 [Example 287, 4-[7-(2-chloro-1H-imidazol-5-yl)-2-cyclopropyl-3-(8-fluoroquinolin-4-yl)benzimidazol-5-yl]morpholine]"
14,19,"Cc1ncc(-c2cc(N3CCOCC3)cc3c2nc(C)n3-c2ccnc3c(Cl)cccc23)[nH]1 [Example 201, 4-[3-(8-chloroquinolin-4-yl)-2-methyl-7-(2-methyl-1H-imidazol-5-yl)benzimidazol-5-yl]morpholine]"
15,21,"CCc1nc2c(-c3cnc(C)[nH]3)cc(N3CCOCC3)cc2n1-c1ccnc2c(Cl)cccc12 [Example 245, 4-[3-(8-chloroquinolin-4-yl)-2-ethyl-7-(2-methyl-1H-imidazol-5-yl)benzimidazol-5-yl]morpholine]"
16,77,"Cc1nc2c(-c3nnco3)cc(N3CCOCC3)cc2n1-c1ccnc2c(Cl)cccc12 [Example 162, 4-(1-(8-chloroquinolin-4-yl)-2-methyl-4-(1,3,4-oxadiazol-2-yl)-1H-benzo[d]imidazol-6-yl)morpholine]"

# Further lines, the compound ahead of its results:
row,Compound,IC50 [nM]
1,"CCc1nc2c(-c3nnc[nH]3)cc(N3CCOCC3)cc2n1-c1c(-c2nnc[nH]2)cnc2ccccc12 [Example 391, 4-(1-(3-(4H-1,2,4-triazol-3-yl)quinolin-4-yl)-2-ethyl-4-(4H-1,2,4-triazol-3-yl)-1H-benzo[d]imidazol-6-yl)morpholine]",10
2,"Cc1cnc2c(C#N)cccc2c1-n1c(C)nc2c(-c3nnc[nH]3)cc(N3CCOCC3)cc21 (atropisomer, axis not shown) [Compound 374, 3-methyl-4-(2-methyl-6-morpholino-4-(4H-1,2,4-triazol-3-yl)-1H-benzo[d]imidazol-1-yl)quinoline-8-carbonitrile]",22
3,"Fc1ccc(F)c2c(-n3cnc4c(-c5cnc[nH]5)cc(N5CCOCC5)cc43)ccnc12 [Example 336, 4-[3-(5,8-difluoroquinolin-4-yl)-7-(1H-imidazol-5-yl)benzimidazol-5-yl]morpholine]",5
4,"Cc1nc2c(-c3nnc[nH]3)cc(N3CCOCC3)cc2n1-c1ccnc2cccc(C(F)F)c12 [Example 85, 4-[3-[5-(difluoromethyl)quinolin-4-yl]-2-methyl-7-(4H-1,2,4-triazol-3-yl)benzimidazol-5-yl]morpholine]",280
5,"CCc1nc2ccccc2c(-n2c(C)nc3c(-c4nnc[nH]4)cc(N4CCOCC4)cc32)c1C [Example 55, 4-[3-(2-ethyl-3-methylquinolin-4-yl)-2-methyl-7-(4H-1,2,4-triazol-3-yl)benzimidazol-5-yl]morpholine]",27
6,"Fc1ccc(F)c2c(-n3c(C4CC4)nc4c(-c5cnc(Cl)[nH]5)cc(N5CCOCC5)cc43)ccnc12 (atropisomer, axis not shown) [Compound 343, 4-[7-(2-chloro-1H-imidazol-5-yl)-2-cyclopropyl-3-(5,8-difluoroquinolin-4-yl)benzimidazol-5-yl]morpholine]",5
7,"Cc1nc2c(-c3nnc[nH]3)cc(N3CCOCC3)cc2n1-c1cc(-c2cn[nH]c2)nc2ccccc12 [Example 167, 4-(1-(2-(1H-pyrazol-4-yl)quinolin-4-yl)-2-methyl-4-(4H-1,2,4-triazol-3-yl)-1H-benzo[d]imidazol-6-yl)morpholine 2,2,2-trifluoroacetate]",12
8,"CCCc1nc2c(-c3ccn[nH]3)cc(N3CCOCC3)cc2n1-c1ccnc2c(F)ccc(F)c12 (atropisomer, axis not shown) [Compound 368, 4-(1-(5,8-difluoroquinolin-4-yl)-2-propyl-4-(1H-pyrazol-5-yl)-1H-benzo[d]imidazol-6-yl)morpholine]",18
9,"Cc1nc2c(-c3nnc[nH]3)cc(N3CCOCC3)cc2n1-c1cc(-c2nnc[nH]2)nc2ccccc12 [Example 57, 4-[2-methyl-7-(4H-1,2,4-triazol-3-yl)-3-[2-(4H-1,2,4-triazol-3-yl)quinolin-4-yl]benzimidazol-5-yl]morpholine]",55
10,"Cc1cc(-n2c(C)nc3c(-c4nc(C)n[nH]4)cc(N4CCOCC4)cc32)c2ccccc2n1 [Example 73, 4-[2-methyl-3-(2-methylquinolin-4-yl)-7-(3-methyl-1H-1,2,4-triazol-5-yl)benzimidazol-5-yl]morpholine]",78
11,"c1ccc2c(-n3cnc4c(-c5nnc[nH]5)cc(N5CCOCC5)cc43)cc(N3CCNCC3)nc2c1 [Example 379, 4-(1-(2-(piperazin-1-yl)quinolin-4-yl)-4-(4H-1,2,4-triazol-3-yl)-1H-benzo[d]imidazol-6-yl)morpholine]",8
12,"CC(C)Cc1nc2c(-c3cnc(Cl)[nH]3)cc(N3CCOCC3)cc2n1-c1ccnc2c(F)ccc(F)c12 [Example 300, 4-[7-(2-chloro-1H-imidazol-5-yl)-3-(5,8-difluoroquinolin-4-yl)-2-(2-methylpropyl)benzimidazol-5-yl]morpholine]",14
13,"c1ccc2c(-n3cnc4c(-c5nnc[nH]5)cc(N5CCOCC5)cc43)cc(-c3cc[nH]n3)nc2c1 [Example 383, 4-(1-(2-(1H-pyrazol-3-yl)quinolin-4-yl)-4-(4H-1,2,4-triazol-3-yl)-1H-benzo[d]imidazol-6-yl)morpholine]",11
14,"CCCc1nc2c(-c3nnc[nH]3)cc(N3CCOCC3)cc2n1-c1ccnc2c(F)cc(F)cc12 [Example 146, 4-[3-(6,8-difluoroquinolin-4-yl)-2-propyl-7-(4H-1,2,4-triazol-3-yl)benzimidazol-5-yl]morpholine]",101
15,"CCc1nc2c(-c3nnc[nH]3)cc(N3CCOCC3)cc2n1-c1ccnc2ccccc12 [Example 107, 4-[2-ethyl-3-quinolin-4-yl-7-(4H-1,2,4-triazol-3-yl)benzimidazol-5-yl]morpholine]",29
16,"c1ccc2c(-n3cnc4c(-c5nnc[nH]5)cc(N5CCOCC5)cc43)cc(-c3cn[nH]c3)nc2c1 [Example 381, 4-(1-(2-(1H-pyrazol-4-yl)quinolin-4-yl)-4-(4H-1,2,4-triazol-3-yl)-1H-benzo[d]imidazol-6-yl)morpholine]",24
17,"Cc1nc2c(-c3nnc[nH]3)cc(N3CCOCC3)cc2n1-c1cc(-c2cscn2)nc2ccccc12 [Example 103, 4-(2-methyl-1-(2-(thiazol-4-yl)quinolin-4-yl)-4-(4H-1,2,4-triazol-3-yl)-1H-benzo[d]imidazol-6-yl)morpholine]",9
18,"FC(F)c1cc(-n2cnc3c(-c4nnc[nH]4)cc(N4CCOCC4)cc32)c2cccc(Cl)c2n1 [Example 88, 4-[3-[8-chloro-2-(difluoromethyl)quinolin-4-yl]-7-(4H-1,2,4-triazol-3-yl)benzimidazol-5-yl]morpholine]",4
